Patent US8952024B2, “Herbicidal pyrimidone derivatives” (E I du Pont de Nemours and Company, priority 2009, dated 2015)

Legend:
Assay in all cases: Test B pre-/postemergence plant response
Type in all cases: in vivo
Conditions in all cases: Postemergence
[1] = test system: corn (Zea mays)
Text: (§1) Seeds of plant species selected from blackgrass (Alopecurus myosuroides), downy bromegrass (Bromus tectorum), green foxtail (Setaria viridis), Italian ryegrass (Lolium multiflorum), wheat (Triticum aestivum), wild oat (Avena fatua), deadnettle (henbit deadnettle, Lamium amplexicaule), galium (catchweed bedstraw, Galium aparine), bermudagrass (Cynodon dactylon), Surinam grass (Brachiaria decumbens), cocklebur (Xanthium strumarium), corn (Zea mays), large crabgrass (Digitaria sanguinalis), woolly cupgrass (Eriochloa villosa), giant foxtail (Setaria faberii), goosegrass (Eleusine indica), johnsongrass (Sorghum halepense), kochia (Kochia scoparia), lambsquarters (Chenopodium album), morningglory (Ipomoea coccinea), nightshade (eastern black nightshade, Solanum ptycanthum), yellow nutsedge (Cyperus esculentus), pigweed (Amaranthus retroflexus), ragweed (common ragweed, Ambrosia elatior), Russian thistle (Salsola kali), soybean (Glycine max), sunflower (common oilseed sunflower, Helianthus annuus) and velvetleaf (Abutilon theophrasti) were planted into a blend of loam soil and sand and treated preemergence with test compounds formulated in a non-phytotoxic solvent mixture which included a surfactant.
(§2) At the same time, plants selected from these crop and weed species and also winter barley (Hordeum vulgare), canarygrass (Phalaris minor), chickweed (Stellaria media) and windgrass (Apera spica-venti) were planted in pots containing Redi-Earth® planting medium (Scotts Company, 14111 Scottslawn Road, Marysville, Ohio 43041) comprising spaghnum peat moss, vermiculite, wetting agent and starter nutrients and treated with postemergence applications of some of the test chemicals formulated in the same manner. Plants ranged in height from 2 to 18 cm (1- to 4-leaf stage) for postemergence treatments.
(§3) Treated plants and controls were maintained in a greenhouse for 13 to 15 days, after which time all treated plants were visually evaluated and compared to controls. Plant response ratings, summarized in Table B, are based on a scale of 0 to 100 where 0 is no effect and 100 is complete control. A dash (-) response means no test result.

[2] = test system: Surinam grass (Brachiaria decumbens)
Text: as §1, §2, §3

[3] = test system: green foxtail (Setaria viridis)
Text: as §1, §2, §3

[4] = test system: large crabgrass (Digitaria sanguinalis)
Text: as §1, §2, §3

[5] = test system: wild oat (Avena fatua)
Text: as §1, §2, §3

[6] = test system: soybean (Glycine max)
Text: as §1, §2, §3

[7] = test system: lambsquarters (Chenopodium album)
Text: as §1, §2, §3

[8] = test system: kochia (Kochia scoparia)
Text: as §1, §2, §3

[9] = test system: blackgrass (Alopecurus myosuroides)
Text: as §1, §2, §3

[10] = test system: velvetleaf (Abutilon theophrasti)
Text: as §1, §2, §3

[11] = test system: ragweed (common ragweed, Ambrosia elatior)
Text: as §1, §2, §3

[12] = test system: Italian ryegrass (Lolium multiflorum)
Text: as §1, §2, §3

[13] = test system: downy bromegrass (Bromus tectorum)
Text: as §1, §2, §3

[14] = test system: pigweed (Amaranthus retroflexus)
Text: as §1, §2, §3

[15] = test system: bermudagrass (Cynodon dactylon)
Text: as §1, §2, §3

[16] = test system: yellow nutsedge (Cyperus esculentus)
Text: as §1, §2, §3

[17] = 31 g ai/ha, 0 to 100 scale (0 no effect, 100 complete control)
[18] = 125 g ai/ha, scale 0 (no effect) to 100 (complete control), 13 to 15 days
[19] = 250 g ai/ha, scale 0 to 100 (0 no effect, 100 complete control), 13 to 15 days
[20] = 62 g ai/ha, scale 0 to 100 (0 no effect, 100 complete control)

CCCCn1c(-c2ccccc2)ncc(C(=O)C2=C(O)C3CCC(C3)C2=O)c1=O (stereo not drawn) [Compound 240]
20: Plant response rating, Bromegrass, Downy [13, 20] | Plant response rating, Nutsedge, Yellow [16, 18]
80: Plant response rating, Crabgrass, Large [4, 17] | Plant response rating, Kochia [8, 17]
10: Plant response rating, Ryegrass, Italian [12, 17] | Plant response rating, Bromegrass, Downy [13, 17] | Plant response rating, Nutsedge, Yellow [16, 17]
90: Plant response rating, Corn [1, 17] | Plant response rating, Foxtail, Green [3, 17] | Plant response rating, Foxtail, Green [3, 20]
45: Plant response rating, Oat, Wild [5, 18] | Plant response rating, Nutsedge, Yellow [16, 19]
15: Plant response rating, Ryegrass, Italian [12, 20] | Plant response rating, Nutsedge, Yellow [16, 20]
60: Plant response rating, Oat, Wild [5, 19]
75: Plant response rating, Velvetleaf [10, 17]
40: Plant response rating, Oat, Wild [5, 20] | Plant response rating, Blackgrass [9, 17] | Plant response rating, Ryegrass, Italian [12, 18] | Plant response rating, Ryegrass, Italian [12, 19]
25: Plant response rating, Oat, Wild [5, 17] | Plant response rating, Bromegrass, Downy [13, 18]
85: Plant response rating, Velvetleaf [10, 18] | Plant response rating, Velvetleaf [10, 20]
65: Plant response rating, Blackgrass [9, 18] | Plant response rating, Blackgrass [9, 19]
50: Plant response rating, Blackgrass [9, 20] | Plant response rating, Bromegrass, Downy [13, 19]
98: Plant response rating, Surinam Grass [2, 20] | Plant response rating, Foxtail, Green [3, 19] | Plant response rating, Crabgrass, Large [4, 20] | Plant response rating, Lambsquarters [7, 17] | Plant response rating, Kochia [8, 20] | Plant response rating, Ragweed [11, 17] | Plant response rating, Ragweed [11, 20] | Plant response rating, Bermudagrass [15, 17]
100: Plant response rating, Corn [1, 18] | Plant response rating, Corn [1, 19] | Plant response rating, Surinam Grass [2, 18] | Plant response rating, Surinam Grass [2, 19] | Plant response rating, Crabgrass, Large [4, 18] | Plant response rating, Crabgrass, Large [4, 19] | Plant response rating, Soybean [6, 19] | Plant response rating, Lambsquarters [7, 18] | Plant response rating, Lambsquarters [7, 19] | Plant response rating, Lambsquarters [7, 20] | Plant response rating, Kochia [8, 18] | Plant response rating, Kochia [8, 19] | Plant response rating, Velvetleaf [10, 19] | Plant response rating, Ragweed [11, 18] | Plant response rating, Ragweed [11, 19] | Plant response rating, Pigweed [14, 18] | Plant response rating, Pigweed [14, 19] | Plant response rating, Pigweed [14, 20] | Plant response rating, Bermudagrass [15, 18] | Plant response rating, Bermudagrass [15, 19] | Plant response rating, Bermudagrass [15, 20]
95: Plant response rating, Corn [1, 20] | Plant response rating, Surinam Grass [2, 17] | Plant response rating, Foxtail, Green [3, 18] | Plant response rating, Soybean [6, 17] | Plant response rating, Soybean [6, 18] | Plant response rating, Soybean [6, 20]
